Read-outs that look alike come from different tables or passages of the source.
Experiments:
SHP2 (full length) = biological target: T1, SHP2 (full length) (Homo sapiens, UniProt Q06124); experiment: Phosphatase assay (PTPase assay) with DiFMUP substrate; assay type: biochemical; settings: SHP2 activated with SHP2 activating peptide; DiFMUP 80 μM, 2 hours; fluorescence; read-out: IC50 (PTPase aS say)
T1 construct: SHP2 (full length, diluted to 100 pM final concentration in reaction buffer, BPS bioscience, US); purchased BPS bioscience, US
T1 sequence (Q06124 1-593): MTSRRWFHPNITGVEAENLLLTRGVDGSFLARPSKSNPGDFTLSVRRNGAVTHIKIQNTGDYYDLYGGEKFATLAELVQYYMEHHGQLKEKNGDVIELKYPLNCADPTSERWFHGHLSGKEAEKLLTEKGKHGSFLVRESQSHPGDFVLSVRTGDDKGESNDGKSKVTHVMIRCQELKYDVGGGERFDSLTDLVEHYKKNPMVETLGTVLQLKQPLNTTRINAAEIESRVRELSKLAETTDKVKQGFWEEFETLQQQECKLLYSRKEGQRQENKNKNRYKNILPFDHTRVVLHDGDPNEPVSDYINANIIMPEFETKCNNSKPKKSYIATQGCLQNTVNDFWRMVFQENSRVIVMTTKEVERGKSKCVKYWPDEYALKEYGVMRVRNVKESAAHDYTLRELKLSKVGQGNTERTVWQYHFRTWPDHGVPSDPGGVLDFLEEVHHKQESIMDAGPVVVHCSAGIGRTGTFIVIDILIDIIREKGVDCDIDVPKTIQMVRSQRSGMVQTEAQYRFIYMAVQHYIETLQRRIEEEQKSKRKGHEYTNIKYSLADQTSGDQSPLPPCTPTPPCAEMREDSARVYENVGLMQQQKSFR

[1] = system: phospho-ERK in MIA PaCa2 or H358 cells; experiment: Phospho-ERK assay (AlphaLisa); assay type: cell-based
[2] = 1.5 h, MIA PaCa2 or H358 cells, compound incubated 1.5 hours, read-out: IC50 (p-ERK)
[3] = MIA PaCa2 or H358 cells, compound incubated 1.5 hours, read-out: IC50 (p-ERK)

| IC50 (SHP2 (full length)) [nM] | IC50 [1, 2] [nM] | IC50 ([1]; 1.5 h, read-out: IC50 (p-ERK, nM)) [nM] | Structure (SMILES) | IC50 [1, 3] [nM] |
| --- | --- | --- | --- | --- |
| 3 to 100 | 45 to 1500 |  | C[C@@H]1OCC2(CCN(c3cnc(Sc4ccc5ncn(CC(F)(F)F)c(=O)c5c4Cl)cn3)CC2)[C@@H]1N [Example 75, 6-((5-((3S,4S)-4-amino-3-methyl-2-oxa-8-azaspiro[4.5]decan-8-yl)pyrazin-2-yl)thio)-5-chloro-3-(2,2,2-trifluoroethyl)quinazolin-4(3H)-one] |  |
| < 3 | < 45 |  | C[C@@H]1OCC2(CCN(c3cnc(Sc4ccc5ncn(CC(=O)c6cccnc6)c(=O)c5c4Cl)cn3)CC2)[C@@H]1N [Example 90, 6-((5-((3S,4S)-4-amino-3-methyl-2-oxa-8-azaspiro[4.5]decan-8-yl)pyrazin-2-yl)thio)-5-chloro-3-(2-oxo-2-(pyridin-3-yl]ethyl)quinazolin-4(3H)-one] |  |
| < 3 | < 45 |  | N[C@@H]1c2cccnc2CC12CCN(c1cnc(Sc3ccc4ncn(CCCO)c(=O)c4c3Cl)cn1)CC2 [Example 109] |  |
| < 3 | < 45 |  | COc1ccc(Cn2cnc3ccc(Sc4cnc(N5CCC6(CC5)CO[C@@H](C)[C@H]6N)cn4)c(Cl)c3c2=O)cc1F [Example 73, 6-((5-((3S,4S)-4-amino-3-methyl-2-oxa-8-azaspiro[4.5]decan-8-yl)pyrazin-2-yl)thio)-5-chloro-3-(3-fluoro-4-methoxybenzyl)quinazolin-4(3H)-one] |  |
| < 3 | < 45 |  | C[C@@H]1OCC2(CCN(c3cnc(Sc4ccc5ncn(CC(C)(C)O)c(=O)c5c4Cl)cn3)CC2)[C@@H]1N [Example 81, 6-((5-((3S,4S)-4-amino-3-methyl-2-oxa-8-azaspiro[4.5]decan-8-yl)pyrazin-2-yl)thio)-5-chloro-3-(2-hydroxy-2-methylpropyl)quinazolin-4(3H)-one] |  |
| < 3 | < 45 |  | CC(=O)Cn1cnc2ccc(Sc3cnc(N4CCC5(CC4)CO[C@@H](C)[C@H]5N)cn3)c(Cl)c2c1=O [Example 92, 6-((5-((3S,4S)-4-amino-3-methyl-2-oxa-8-azaspiro[4.5]decan-8-yl)pyrazin-2-yl)thio)-5-chloro-3-(2-oxopropyl)quinazolin-4(3H)-one] |  |
| < 3 | 45 to 1500 |  | C[C@@H]1OCC2(CCN(c3cnc(Sc4ccc5ncn(Cc6ccc(F)cc6)c(=O)c5c4Cl)cn3)CC2)[C@@H]1N [Example 40, 6-((5-((3S,4S)-4-amino-3-methyl-2-oxa-8-azaspiro[4.5]decan-8-yl)pyrazin-2-yl)thio)-5-chloro-3-(4-fluorobenzyl)quinazolin-4(3H)-one] |  |
| < 3 | < 45 |  | N[C@@H]1c2cccnc2CC12CCN(c1cnc(Sc3ccc4ncn(Cc5ccoc5)c(=O)c4c3Cl)cn1)CC2 [Example 138] |  |
| < 3 | < 45 |  | COCCn1cnc2ccc(Sc3cnc(N4CCC5(CC4)CO[C@@H](C)[C@H]5N)c(CO)n3)c(Cl)c2c1=O [Example 153, 6-[5-[(3S,4S)-4-amino-3-methyl-2-oxa-8-azaspiro[4.5]decan-8-yl]-6-(hydroxymethyl)pyrazin-2-yl]sulfanyl-5-chloro-3-(2-methoxyethyl)quinazolin-4-one] |  |
| 3 to 100 | 45 to 1500 |  | C[C@@H]1OCC2(CCN(c3cnc(Sc4ccc5ncn(CC6CCCN6C)c(=O)c5c4Cl)cn3)CC2)[C@@H]1N (stereo partly drawn) [Example 74, 6-((5-((3S,4S)-4-amino-3-methyl-2-oxa-8-azaspiro[4.5]decan-8-yl)pyrazin-2-yl)thio)-5-chloro-3-((l-methylpyrrolidin-2-yl)methyl)quinazolin-4(3H)-one] |  |
| < 3 | < 45 |  | N[C@@H]1c2cccnc2CC12CCN(c1cnc(Sc3ccc4ncn(Cc5ccccc5)c(=O)c4c3Cl)cn1)CC2 [Example 102, (S)-6-((5-(5-amino-5,7-dihydrospiro[yclopenta[b]pyridine-6,4′-piperidin]-1′-yl)pyrazin-2-yl)thio)-3-benzyl-5-chloroquinazolin-4(3H)-one] |  |
| < 3 | < 45 |  | COCCn1cnc2ccc(Sc3cnc(N4CCC5(CC4)Cc4ccc(O)cc4[C@H]5N)cn3)c(Cl)c2c1=O [Example 163, (S)-6-((5-(1-amino-6-hydroxy-1,3-dihydrospiro(indene-2,4′-piperidin]-1′-yl)pyrazin-2-yl)thio)-5-chloro-3-(2-methoxyethyl)quinazolin-4(31-1)-one] |  |
| 3 to 100 | 45 to 1500 |  | C[C@@H]1OCC2(CCN(c3cnc(Sc4ccc5ncn(Cc6cccc(C(F)(F)F)c6)c(=O)c5c4Cl)cn3)CC2)[C@@H]1N [Example 34] |  |

The remaining lines, values behind:

| Structure (SMILES) | IC50 (SHP2 (full length)) [nM] | IC50 [1, 2] [nM] | IC50 ([1]; 1.5 h, read-out: IC50 (p-ERK, nM)) [nM] | IC50 [1, 3] [nM] |
| --- | --- | --- | --- | --- |
| COCCn1cnc2ccc(Sc3cnc(N4CCC5(CC4)CO[C@@H](C)[C@H]5N)n4ccnc34)c(Cl)c2c1=O [Example 182, 6-((5-((3S,4S)-4-amino-3-methyl-2-oxa-8-azaspiro[4.5]decan-8-yl)imidazo[1,2-c]pyrimidin-8-yl)thio)-5-chloro-3-(2-methoxyethyl)quinazolin-4(3H)-one] | 3 to 100 |  |  | 45 to 1500 |
| COc1cccc(Cc2nc3ccc(Sc4cnc(N5CCC6(CC5)CO[C@@H](C)[C@H]6N)cn4)c(Cl)c3[nH]2)c1 [Example 135] | > 100 | > 1500 |  |  |
| COCCn1cnc2ccc(Sc3nc(C(C)=O)c(N4CCC5(CC4)CO[C@@H](C)[C@H]5N)nc3N)c(Cl)c2c1=O [Example 155] | 3 to 100 | > 1500 |  |  |
| C[C@@H]1OCC2(CCN(c3cnc(Sc4ccc5ncn(CC6CNC(=O)O6)c(=O)c5c4Cl)cn3)CC2)[C@@H]1N (stereo partly shown) [Example 118] | < 3 | < 45 |  |  |
| C[C@@H]1OCC2(CCN(c3cnc(Sc4ccc5c(c4Cl)S(=O)(=O)N(Cc4ccccc4)C=N5)cn3)CC2)[C@@H]1N [Example 124, 7-((5-((3S,4S)-4-amino-3-methyl-2-oxa-8-azaspiro[4,5]decan-8-yl)pyrazin-2-yl)thio)-2-benzyl-8-chloro-2H-benzo[e][1,2,4]thiadiazine 1,1-dioxide] | < 3 | < 45 |  |  |
| Cn1c(N2CCC(C)(N)CC2)nc(N)c(Sc2ccc3ncn(-c4ccccc4)c(=O)c3c2Cl)c1=O [Example 30, 6-((4-amino-2-(4-amino-4-methylpiperidin-1-yl)-1-methyl-6-oxo-1,6-dihydropyrimidin-5-yl)thio)-5-chloro-3-phenylquinazolin-4(3H)-one] | > 100 | > 1500 |  |  |
| C[C@@H]1OCC2(CCN(c3cnc(Sc4ccc5nn(C)cc5c4Cl)cn3)CC2)[C@@H]1N [Example 26, (3S,4S)-8-(5-((4-chloro-2-methyl-2H-indazol-5-yl)thio)pyrazin-2-yl)-3-methyl-2-oxa-8-azaspiro[4.5]decan-4-amine] | < 3 | < 45 |  |  |
| COC(=O)c1cccc(Sc2cnc(N3CCC(C)(N)CC3)cn2)c1Cl [Example 1, methyl 3-((5-(4-amino-4-methylpiperidin-1-yl)pyrazin-2-yl)thio)-2-chlorobenzoate] | 3 to 100 | 45 to 1500 |  |  |
| C[C@@H]1OCC2(CCN(c3cnc(Sc4ccc5nc[nH]c(=O)c5c4Cl)cn3)CC2)[C@@H]1N [Example 5, 6-((5-((3S,4S)-4-amino-3-methyl-2-oxa-8-azaspiro[4.5]decan-8-yl)pyrazin-2-yl)thio)-5-chloroquinazolin-4(3H)-one] | 3 to 100 | 45 to 1500 |  |  |
| CC1(N)CCN(c2cnc(-c3cccc(Cl)c3Cl)c(N)n2)CC1 [SHP099, 6-(4-amino-4-methylpiperidin-1-yl)-3-(2,3-dichlorophenyl)pyrazin-2-amine, reference compound] |  |  | 45 to 1500 |  |
| C[C@@H]1OCC2(CCN(c3cnc(Sc4ccnc(N)c4Cl)c(N)n3)CC2)[C@@H]1N [TNO155, (3S,4S)-8-(6-amino-5-((2-amino-3-chloropyridin-4-yl)thio)pyrazin-2-yl)-3-methyl-2-oxa-8-azaspiro[4.5]decan-4-amine, reference compound] |  |  |  | < 45 |
| COCCn1cnc2ccc(Sc3cnc(N4CCC5(CC4)CO[C@@H](C)[C@H]5N)nn3)c(Cl)c2c1=O [Example 183, 6-((3-((3S,4S)-4-amino-3-methyl-2-oxa-8-azaspiro[4.5]decan-8-yl)-1,2,4-triazin-6-yl)thio)-5-chloro-3-(2-methoxyethyl)quinazolin-4(3H)-one] |  |  |  | > 1500 |
| Cc1nc2ccc(Sc3cnc(N4CCC(C)(CN)CC4)cn3)c(Cl)c2c(=O)n1Cc1cccc(S(=O)(=O)F)c1 [Example 21, 3-((6-((5-(4-(aminomethyl)-4-methylpiperidin-1-yl)pyrazin-2-yl)thio)-5-chloro-2methyl-4-oxoquinazolin-3(4H)-yl)methyl)benzenesulfonyl fluoride] |  |  |  | 45 to 1500 |
| C[C@@H]1OCC2(CCN(c3cnc(Sc4ccnc(C(=O)NCc5ccccc5)c4Cl)cn3)CC2)[C@@H]1N [Example 86, 4-((5-((3S,4S)-4-amino-3-methyl-2-oxa-8-azaspiro[4.5]decan-8-yl)pyrazin-2-yl)thio)-N-benzyl-3-chloropicolinamide] | 3 to 100 |  |  |  |

— patent US12029739B2, “SHP2 inhibitor and use thereof” (KANAPH THERAPEUTICS INC., priority 2021, dated 2024)
